From US12642270B2, “Substituted thiophene carboxamides, thiophene carboxylic acids and derivatives thereof” (Bayer Aktiengesellschaft, priority 2019, dated 2026) come the findings set out here.

The structures appear in SMILES notation.

The nature of the first series: Log P by HPLC on reversed phase columns (EEC directive 79/831 Annex V.A8). The series is classed as physicochemical. The settings on record: LogP method [a]; compounds of formula (I), Table 1.1. The procedure, abridged: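 Reversed-phase HPLC per EEC 79/831 Annex V.A8, LC-UV with 10→95% acetonitrile linear gradient; eluent [a] 0.1% formic acid (acidic), [b] 0.001 M ammonium acetate (neutral), [c] 0.1% phosphoric acid (acidic). Calibrated with C3–C16 straight-chain alkan-2-ones, linear interpolation of retention times; multiple values joined by "+".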
For the molecule `CCOC(=O)C(NC(=O)c1sc(C(F)F)c(Br)c1Br)C(C)C` (centres unmarked) [1.0514], the LogP is 4.30^[a].

For the molecule `CCOC(=O)C(CC(C)C)NC(=O)c1cc(Cl)c(Br)s1` (centres unmarked) [1.0444], the LogP is 4.19^[a].

As for `CCOC(=O)CCNC(=O)c1cc(C)c(Cl)s1` [1.0465], the LogP was 2.49^[a].

Consider `CCOC(=O)C1(NC(=O)c2cc(Cl)c(Br)s2)CCC1` [1.0452], for which the LogP is 3.29^[a].

As for `COC(=O)C(C1CC1)N(O)C(=O)c1sc(Br)c(Br)c1F` (centres unmarked) [1.0413], the LogP was 2.77^[a].

The same series, now with this note: method [a].
`CC(C)OC(=O)C1(NC(=O)c2sc(Cl)c(Cl)c2Br)CCC1` [1.0611]: the LogP is 4.69^[a].

In the case of `CCOC(=O)C(CC(C)C)NC(=O)c1sc(C#N)c(Br)c1C` (centres unmarked) [1.0245], the LogP was 3.85^[a].

As to `COC(=O)[C@H](CC(=O)OC(C)(C)C)NC(=O)c1sc(Br)c(Br)c1F` [1.0560], the LogP is 4.12^[a].

Turning to `COC(=O)CNC(=O)c1sc(Br)c(Br)c1C#N` [1.0798], the LogP was 2.24^[a].

For the molecule `COC(=O)C1(NC(=O)c2sc(C#N)c(Br)c2Cl)CC1` [1.0602], the LogP was 2.44^[a].

As to `COC(=O)C(CCSC)NC(=O)c1sc(C#N)c(Cl)c1Cl` (centres unmarked) [1.0791], the LogP was 3.26^[a].

As for `CCOC(=O)C[C@H](NC(=O)c1sc(Cl)c(Cl)c1Br)C(=O)OCC` [1.0551], the LogP is 4.17^[a].

Regarding `COC(=O)C1(NC(=O)c2sc(Cl)c(Br)c2F)CCC1` [1.0641], the LogP is 3.29^[a].

With `NC(=O)CNC(=O)c1sc(Cl)c(Cl)c1Br` [1.0626], the LogP was 1.98^[a].

With `CC(C)(C)OC(=O)C(NC(=O)c1sc(Br)c(Br)c1Cl)C1CC1` (centres unmarked) [1.0884], the LogP was 5.36^[a].

Turning to `CCOC(=O)C1(NC(=O)c2sc(C#N)c(Br)c2Cl)CCC1` [1.0566], the LogP was 3.38^[a].

As to `COC(=O)CNC(=O)c1cc(Cl)c(F)s1` [1.0906], the LogP is 1.90^[a].

On to `CCOC(=O)C1(NC(=O)c2sc(Br)c(Br)c2C#N)CC1` [1.0799], for which the LogP was 2.73^[a].

For the molecule `O=C(NC1(C(=O)OC2CCC2)CC1)c1cc(Cl)c(Br)s1` [1.0599], the LogP is 3.43^[a].

With `CCCCOC(=O)C1(NC(=O)c2sc(Br)c(Br)c2Cl)CCC1` [1.0907], the LogP is 5.20^[a].

For the molecule `CCOC(=O)CNC(=O)c1sc(Cl)c(Cl)c1C#N` [1.0236], the LogP is 2.52^[a].

As for `O=C(NC(C(=O)OC1CCC1)C1CC1)c1sc(Br)c(Br)c1F` (racemic) [1.0922], the LogP was 4.59^[a].

For the molecule `CC(C)CC(NC(=O)c1sc(Br)c(Br)c1F)C(=O)O` (centres unmarked) [1.0229], the LogP is 3.34^[a].

Take `CCCOC(=O)C1(NC(=O)c2sc(Br)c(Cl)c2F)CC1` [1.0591]: the LogP was 3.56^[a].

Consider `COC(=O)C1(NC(=O)c2sc(C#N)c(Br)c2Cl)CCC1` [1.0565], for which the LogP is 2.98^[a].

With `NC(=O)CNC(=O)c1sc(Br)c(Br)c1F` [1.0894], the LogP was 1.69^[a].

`CCOC(=O)C(NC(=O)c1sc(Br)c(Br)c1F)c1ccccc1` (centres unmarked) [1.0175]: the LogP was 4.47^[a].

Still in this series, the particulars now being: method [a]: LC-UV, acidic range, 0.1% formic acid in water and acetonitrile.
For the molecule `O=C(N[C@H]1CCSC1=O)c1sc(Cl)c(Cl)c1Br` [I.1011], the LogP was 3.24^[a].

`O=C(O)c1cc(F)c(Br)s1` [II.039]: the LogP is 1.02^[a].

`Cc1c(C(=O)N[C@H]2CCSC2=O)sc(C#N)c1Br` [I.0866]: the LogP was 2.39^[a].

For the molecule `N#Cc1sc(C(=O)O)c(Br)c1Br` [II.061], the LogP was 1.66^[a].

Consider `CCOC(=O)c1sc(Cl)c(Br)c1Cl` [II.089], for which the LogP is 4.62^[a].

In the case of `CCOC(=O)c1sc(Cl)c(Br)c1C` [II.032], the LogP is 5.00^[a].

With `O=C(N[C@H]1CCCNC1=O)c1sc(Cl)c(Br)c1Cl` [I.0939], the LogP is 2.29^[a].

`O=C(O)c1cc(F)c(Cl)s1` [II.037]: the LogP was 1.89^[a].

Regarding `CCOC(=O)c1cc(Br)c(Cl)s1` [II.048], the LogP is 4.21^[a].

For the molecule `COC(=O)c1sc(Cl)c(C#N)c1Br` [II.095], the LogP is 2.92^[a].

Turning to `N#CC1(NC(=O)c2sc(Br)c(Br)c2F)CCC(C2CCCCC2)CC1` (centres unmarked) [I.1012], the LogP was 6.13^[a].

The series is the same for the next values; noted with them: method [a]; compounds of formula (I), Table 1.1.
For `CCOC(=O)CCNC(=O)c1sc(C#N)c(Br)c1C` [1.0025], the LogP is 2.52^[a].

Take `CCOC(=O)C(Cc1ccccc1)NC(=O)c1sc(Br)c(I)c1C` (centres unmarked) [1.0095]: the LogP is 4.53^[a].

For `COC(=O)C1(NC(=O)c2sc(Br)c(Br)c2F)CCC(F)(F)CC1` [1.0010], the LogP was 3.74^[a].

Take `CCOC(=O)C(C)NC(=O)c1sc(Cl)c(Br)c1C` (centres unmarked) [1.0122]: the LogP is 3.37^[a].

The series is the same for the next values; noted with them: method marked [a].
In the case of `CCOC(=O)C(NC(=O)c1cc(C#N)c(Cl)s1)C(C)C` (centres unmarked) [1.0382], the LogP was 3.20^[a].

In the case of `O=C(CNC(=O)c1sc(Br)c(Br)c1Cl)OC1CCOC1` (centres unmarked) [1.0677], the LogP is 2.84^[a].

Turning to `CCOC(=O)C(NC(=O)c1sc(Br)c(Br)c1C(F)F)C(C)C` (centres unmarked) [1.0360], the LogP was 4.16^[a].

As for `CCOC(=O)[C@H](CCSC)NC(=O)c1sc(Cl)c(Br)c1C` [1.0736], the LogP is 4.02^[a].

In the case of `CCOC(=O)C(CCSC)NC(=O)c1cc(F)c(Cl)s1` (centres unmarked) [1.0310], the LogP was 3.25^[a].

On to `CCOC(=O)CNC(=O)c1sc(Cl)c(Cl)c1F` [1.0344], for which the LogP was 2.83^[a].

On to `CCOC(=O)C1(NC(=O)c2sc(Br)c(Br)c2C(F)F)CCC1` [1.0359], for which the LogP is 3.67^[a].

Consider `CCOC(=O)C(NC(=O)c1cc(F)c(Cl)s1)C(C)C` (centres unmarked) [1.0309], for which the LogP was 3.44^[a].

Regarding `CCOC(=O)CNC(=O)c1sc(C#N)c(Cl)c1C` [1.0303], the LogP was 2.39^[a].

As for `COC(=O)C1(NC(=O)c2cc(Br)c(C(F)(F)F)s2)CCC1` [1.0722], the LogP is 3.33^[a].

As to `O=C(NC1(C(=O)O)CC1)c1sc(Cl)c(Br)c1F` [1.0702], the LogP was 2.15^[a].

As to `COC(=O)CNC(=O)c1cc(C#N)c(Cl)s1` [1.0378], the LogP is 1.75^[a].

On to `COC(=O)C1(NC(=S)c2sc(Br)c(Br)c2F)CC1` [1.0328], for which the LogP is 3.91^[a].

As for `CCOC(=O)C(C#N)NC(=O)c1sc(Cl)c(Br)c1Br` (centres unmarked) [1.0744], the LogP was 3.38^[a].

`CCOC(=O)C1(NC(=O)c2sc(Br)c(Br)c2C(F)(F)F)CC1` [1.0370]: the LogP was 3.26^[a].

Staying with this series, now noted: method marker [a] given with each value; Table 1.1, compounds of formula (I).
In the case of `CCOC(=O)C(NC(=O)c1sc(Br)c(Br)c1Cl)C(F)(F)F` (racemic) [1.0943], the LogP was 4.50^[a].

As to `N#CC1(NC(=O)c2sc(Br)c(Br)c2Cl)CCCSC1` (centres unmarked) [1.1055], the LogP was 3.85^[a].

For the molecule `Cc1c(C(=O)NCC(=O)Oc2ccccc2)sc(C#N)c1Br` [1.0967], the LogP is 3.10^[a].

With `Cc1c(C(=O)NC2(C(=O)OC(C)C)CC2)sc(C#N)c1Br` [1.0964], the LogP is 2.93^[a].

On to `CNC(=S)CNC(=O)c1sc(Br)c(Br)c1F` [1.1001], for which the LogP is 2.56^[a].

As to `Cc1c(C(=O)NC2(C#N)CCC2)sc(C#N)c1Br` [1.1015], the LogP was 2.64^[a].

With `COC(=O)C1(NC(=O)c2sc(Cl)c(Cl)c2Br)CCC1` [1.1004], the LogP was 3.85^[a].

Regarding `O=C(CNC(=O)c1sc(Br)c(Br)c1Cl)Oc1ccccc1` [1.0989], the LogP was 3.93^[a].
